# Results as given in paper PMC3880596 (Journal of medicinal chemistry, 2013).
# How the values were obtained:
# [1] = test system: P. falciparum African D6 clone; experiment: microbe, parasite or virus in culture; format: cell-based, Plasmodium falciparum; details: for IC50: Plasmodium falciparum, D6, read-out: antimalarial activity IC50, CQS D6
# [2] = test system: P. falciparum multidrug resistant C235 strain (Thailand); experiment: microbe, parasite or virus in culture; format: cell-based, Plasmodium falciparum
# [3] = test system: P. falciparum Indochina W2 clone; experiment: microbe, parasite or virus in culture; format: cell-based, Plasmodium falciparum
# in vitro [4] = details: human, microsomes, pH 7.4
# in vitro [5] = details: mouse, microsomes, pH 7.4
# recombinant BoNT/A LC [6] = molecular target: T1, recombinant BoNT/A LC (Clostridium botulinum, UniProt P0DPI0); details: cited from earlier work
# recombinant BoNT/A LC [7] = molecular target: T1, recombinant BoNT/A LC; experiment: biochemical; details: read-out: BoNT/A LC inhibition
# T1 sequence (P0DPI0 2-448 limits assumed): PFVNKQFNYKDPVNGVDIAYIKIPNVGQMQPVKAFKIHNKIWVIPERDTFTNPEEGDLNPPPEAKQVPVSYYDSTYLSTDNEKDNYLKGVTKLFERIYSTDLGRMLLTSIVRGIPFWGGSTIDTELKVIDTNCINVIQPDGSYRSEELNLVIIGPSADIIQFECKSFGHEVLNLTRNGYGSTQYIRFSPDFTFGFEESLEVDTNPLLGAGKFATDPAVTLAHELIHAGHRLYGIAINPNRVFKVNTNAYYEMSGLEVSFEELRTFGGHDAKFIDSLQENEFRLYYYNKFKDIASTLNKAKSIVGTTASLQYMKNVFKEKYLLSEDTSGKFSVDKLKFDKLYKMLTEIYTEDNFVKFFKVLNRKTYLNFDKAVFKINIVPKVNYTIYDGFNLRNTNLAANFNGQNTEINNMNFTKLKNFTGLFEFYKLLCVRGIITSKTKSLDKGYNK
SMILES,"selectivity index (IC50), SI = ICtox/ICP.f. activity, D6 [1]","selectivity index (IC50), SI = ICtox/ICP.f. activity, TM91C235 [2]","selectivity index (IC50), SI = ICtox/ICP.f. activity, W2 [3]",also measured
"CC(C)(C)c1ccc(CNCCCNc2ccnc3cc(Cl)ccc23)cc1 [compound 9, N-(4-Tert-butylbenzyl)-N'-(7-chloroquinolin-4-yl)propane-1,3-diamine]",45/100/68,45/100/68,45/100/68,–
"Clc1ccc2c(NCCCNCc3cccnc3)ccnc2c1 [compound 19, N-(7-Chloroquinolin-4-yl)-N'-(pyridin-3-ylmethyl)propane-1,3-diamine]",–,90/ /317,90/ /317,half-life (in vitro [4]): ≥ 60 min; half-life (in vitro [5]): ≥ 60 min
"Clc1ccc2c(NCCNCc3cnccc3Cl)ccnc2c1 [compound 20, N-[(4-Chloropyridin-3-yl)methyl]-N'-(7-chloroquinolin-4-yl)ethane-1,2-diamine]",46/102/78,46/102/78,46/102/78,–
"Clc1ccc2c(NCCCNCc3ccncc3)ccnc2c1 [compound 17, N-(7-Chloroquinolin-4-yl)-N'-(pyridin-4-ylmethyl)propane-1,3-diamine]",176/4146/469,176/4146/469,176/4146/469,IC50 [1]: < 9 nM
"CC(C)(C)c1ccc(CNCCNc2ccnc3cc(Cl)ccc23)cc1 [compound 8, N-(4-Tert-butylbenzyl)-N'-(7-chloroquinolin-4-yl)ethane-1,2-diamine]",245/429/419,245/429/419,245/429/419,–
"Clc1ccc2c(NCCNCc3cccnc3)ccnc2c1 [compound 18, N-(7-Chloroquinolin-4-yl)-N'-(pyridin-3-ylmethyl)ethane-1,2-diamine]",426/1796/882,426/1796/882,426/1796/882,–
"NCCNc1ccnc2cc(Cl)ccc12 [compound 4, N1-(7-chloroquinolin-4-yl)ethane-1,2-diamine]",–,–,–,"BoNT/A LC inhibition (in words), tested as fragments (recombinant BoNT/A LC [6]): poor BoNT/A LC inhibitors"
"CCN(CC)CCCC(C)Nc1ccnc2cc(Cl)ccc12.O=P(O)(O)O.O=P(O)(O)O (centres unmarked) [CQ, chloroquine, reference compound]",–,–,–,"IC50 [1]: 14.2 nM; IC50 ([2]; Plasmodium falciparum, read-out: antimalarial activity IC50, MDR TM91C235): 226 nM; BoNT/A LC inhibition (in words) (recombinant BoNT/A LC [6]): poor BoNT/A LC inhibitors; IC50 ([3]; Plasmodium falciparum, W2, read-out: antimalarial activity IC50, CQR W2): 634 nM"
"Clc1ccc2c(NCCCNCc3ccccc3)ccnc2c1 [compound 7, N-Benzyl-N'-(7-chloroquinolin-4-yl)propane-1,3-diamine]",56/169/73,56/169/73,56/169/73,half-life (in vitro [4]): ≥ 60 min; half-life (in vitro [5]): ≥ 60 min; inhibition at 20 µM (recombinant BoNT/A LC [7]): > 50%
"COc1ccc(CNCCNc2ccnc3cc(Cl)ccc23)cc1 [compound 10, N-(7-Chloroquinolin-4-yl)-N'-(4-methoxybenzyl)ethane-1,2-diamine]",406/1806/362,406/1806/362,406/1806/362,–
C=C[C@H]1C[N@@]2CC[C@H]1C[C@H]2[C@H](O)c1ccnc2ccc(OC)cc12 [Quinine],–,–,–,BoNT/A LC inhibition (in words) (recombinant BoNT/A LC [6]): poor inhibitors
CCN(CC)Cc1cc(Nc2ccnc3cc(Cl)ccc23)ccc1O [Amodiaquine],–,–,–,BoNT/A LC inhibition (in words) (recombinant BoNT/A LC [6]): poor inhibitors
"Clc1ccc2c(NCCNCc3ccncc3)ccnc2c1 [compound 16, N-(7-Chloroquinolin-4-yl)-N'-(pyridin-4-ylmethyl)ethane-1,2-diamine]",409/2528/752,409/2528/752,409/2528/752,–
"COc1ccncc1CNCCCNc1ccnc2cc(Cl)ccc12 [compound 23, N-(7-Chloroquinolin-4-yl)-N'-[(4-methoxypyridin-3-yl)methyl]propane-1,3-diamine]",57/1040/93,57/1040/93,57/1040/93,half-life (in vitro [4]): ≥ 60 min; half-life (in vitro [5]): ≥ 60 min; IC50 [1]: < 9 nM
C=C[C@H]1C[N@@]2CC[C@H]1C[C@@H]2[C@@H](O)c1ccnc2ccc(OC)cc12 [Quinidine],–,–,–,BoNT/A LC inhibition (in words) (recombinant BoNT/A LC [6]): poor inhibitors
"COc1ccc(CNCCCNc2ccnc3cc(Cl)ccc23)cc1 [compound 11, N-(7-Chloroquinolin-4-yl)-N'-(4-methoxybenzyl)propane-1,3-diamine]",86/778/95,86/778/95,86/778/95,IC50 [1]: < 9 nM
"Fc1ccc(CNCCCNc2ccnc3cc(Cl)ccc23)cc1 [compound 13, N-(7-Chloroquinolin-4-yl)-N'-(4-fluorobenzyl)propane-1,3-diamine]",110/415/185,110/415/185,110/415/185,–
"Fc1ccc(CNCCNc2ccnc3cc(Cl)ccc23)cc1 [compound 12, N-(7-Chloroquinolin-4-yl)-N'-(4-fluorobenzyl)ethane-1,2-diamine]",350/608/291,350/608/291,350/608/291,–
CCN(CC)CCCC(C)Nc1c2ccc(Cl)cc2nc2ccc(OC)cc12 (centres unmarked) [Quinacrine],–,–,–,BoNT/A LC inhibition (in words) (recombinant BoNT/A LC [6]): poor inhibitors
"COc1ccncc1CNCCNc1ccnc2cc(Cl)ccc12 [compound 22, N-(7-Chloroquinolin-4-yl)-N'-[(4-methoxypyridin-3-yl)methyl]ethane-1,2-diamine]",435/4000/588,435/4000/588,435/4000/588,–
"Clc1ccc2c(NCCCNCc3cnccc3Cl)ccnc2c1 [compound 21, N-[(4-Chloropyridin-3-yl)methyl]-N'-(7-chloroquinolin-4-yl)propane-1,3-diamine]",52/146/121,52/146/121,52/146/121,–
"NCCCNc1ccnc2cc(Cl)ccc12 [compound 5, N1-(7-chloroquinolin-4-yl)propane-1,3-diamine]",–,–,–,"BoNT/A LC inhibition (in words), tested as fragments (recombinant BoNT/A LC [6]): poor BoNT/A LC inhibitors"
"Clc1ccc2c(NCCNCc3ccccc3)ccnc2c1 [compound 6, N-Benzyl-N'-(7-chloroquinolin-4-yl)ethane-1,2-diamine]",–,–,–,"IC50 [1]: < 9 nM; IC90 ([3]; Plasmodium falciparum, W2, read-out: antimalarial activity IC90, CQR W2): 14.1 nM; inhibition at 20 µM (recombinant BoNT/A LC [7]): > 50%"
"Clc1ccc2c(NCCNCc3ccc(Br)cc3)ccnc2c1 [compound 14, N-(4-Bromobenzyl)-N'-(7-chloroquinolin-4-yl)ethane-1,2-diamine]",695/1606/660,695/1606/660,695/1606/660,half-life (in vitro [4]): ≥ 60 min; half-life (in vitro [5]): ≥ 60 min
"Clc1ccc2c(NCCCNCc3ccc(Br)cc3)ccnc2c1 [compound 15, N-(4-Bromobenzyl)-N'-(7-chloroquinolin-4-yl)propane-1,3-diamine]",–,–,–,half-life (in vitro [4]): ≥ 60 min; half-life (in vitro [5]): ≥ 60 min
